Experimental data: patent US8481546B2, “CGRP receptor antagonist” (Bristol-Myers Squibb Company, priority 2010, dated 2013)
Like-named read-outs stand apart in the source and are kept apart here.

Legend:
[1] = tested on: olfactory epithelium (nasal tissues); experiment: One-week comparative intranasal irritation study in rats (Compound I vs Compound III): nasal histology and tolerability; assay type: in vivo; conditions: 1 week
Protocol: This study was conducted to compare potential nasal irritation of Compound I to Compound III when given intranasally to male rats for 1 week. Male rats (10/group) were instilled intranasally with Compound I or Compound III solutions ([…] in 225 mM succinic acid, 0.02% benzalkonium chloride, 1.25% anhydrous dextrose, pH 5.8-6.2) once daily at a dose volume of 100 μL/nostril. Using this dosing paradigm, fixed doses of 5, 15 or 35 mg of test article were delivered daily. As a consequence, dosages normalized to body weight decreased with time as the rats grew. One control group was given succinate vehicle and a sham control group was given saline by intranasal instillation. Parameters evaluated included clinical observations, body weight, food consumption, toxicokinetics, and histological evaluation of nasal tissues.

[2] = tested on: olfactory epithelium (nasal turbinates); assay type: in vivo, rats
Excerpt: Compound I and Compound II were also compared directly for intranasal irritation. […] The only endpoint evaluated in this study was histological evaluation of the nasal turbinates.

[3] = nasal instillation 5 mg (0.357 mg/cm^2) once daily
[4] = nasal instillation 15 mg (1.07 mg/cm^2) once daily
[5] = nasal instillation 35 mg (2.50 mg/cm^2) once daily
[6] = 12.5 μL/nostril, 75 mg/ml, 1.875 mg/rat/day (0.134 mg/cm^2)
[7] = 12.5 μL/nostril, 175 mg/ml, 4.375 mg/rat/day (0.313 mg/cm^2)
[8] = 25 μL/nostril, 75 mg/ml, 3.75 mg/rat/day (0.268 mg/cm^2)
[9] = 25 μL/nostril, 175 mg/ml, 8.75 mg/rat/day (0.625 mg/cm^2)
[10] = 100 μL/nostril, 75 mg/ml, 15 mg/rat/day (1.071 mg/cm^2)
[11] = 100 μL/nostril, 175 mg/ml, 35 mg/rat/day (2.500 mg/cm^2)

Cc1cc(C[C@@H](NC(=O)N2CCC(c3cc4ccccc4[nH]c3=O)CC2)C(=O)N2CCC(N3CCCCC3)CC2)cc2cn[nH]c12 [Compound III, reference compound]
0: Olfactory Epithelial Atrophy, incidence of severity Marked (number of rats) [1, 3] | Olfactory Epithelial Atrophy, incidence of severity Moderate (number of rats) [1, 3] | Olfactory Epithelial Atrophy, incidence of severity Marked (number of rats) [1, 4] | Olfactory Epithelial Atrophy, incidence of severity Minimal (number of rats) [1, 4] | Olfactory Epithelial Atrophy, incidence of severity Minimal (number of rats) [1, 5]
6: Olfactory Epithelial Atrophy, incidence of severity Minimal (number of rats) [1, 3] | Olfactory Epithelial Atrophy, incidence of severity Moderate (number of rats) [1, 4]
3: Olfactory Epithelial Atrophy, incidence of severity Moderate (number of rats) [1, 5] | Olfactory Epithelial Atrophy, incidence of severity None (number of rats) [1, 5]
1: Olfactory Epithelial Atrophy, incidence of severity None (number of rats) [1, 3] | Olfactory Epithelial Atrophy, incidence of severity None (number of rats) [1, 4] | Olfactory Epithelial Atrophy, incidence of severity Marked (number of rats) [1, 5]
2: Olfactory Epithelial Atrophy, incidence of severity Mild (number of rats) [1, 3] | Olfactory Epithelial Atrophy, incidence of severity Mild (number of rats) [1, 4] | Olfactory Epithelial Atrophy, incidence of severity Mild (number of rats) [1, 5]

Cc1cc(C[C@@H](NC(=O)N2CCC(C3Cc4cccc(F)c4NC3=O)CC2)C(=O)N2CCC(N3CCCCC3)CC2)cc2cn[nH]c12 (stereo partly shown) [Compound II]
1: Olfactory epithelial toxicity, number of animals with severity Mild [2, 6] | Olfactory epithelial toxicity, number of animals with severity Slight [2, 6] | Olfactory epithelial toxicity, number of animals with severity Mild [2, 7] | Olfactory epithelial toxicity, number of animals with severity Minimal [2, 7] | Olfactory epithelial toxicity, number of animals with severity Slight [2, 8] | Olfactory epithelial toxicity, number of animals with severity None [2, 9] | Olfactory epithelial toxicity, number of animals with severity Slight [2, 9] | Olfactory epithelial toxicity, number of animals with severity Mild [2, 10]
3: Olfactory epithelial toxicity, number of animals with severity None [2, 6] | Olfactory epithelial toxicity, number of animals with severity None [2, 7] | Olfactory epithelial toxicity, number of animals with severity Minimal [2, 9] | Olfactory epithelial toxicity, number of animals with severity Moderate [2, 11]
2: Olfactory epithelial toxicity, number of animals with severity Minimal [2, 8] | Olfactory epithelial toxicity, number of animals with severity None [2, 8] | Olfactory epithelial toxicity, number of animals with severity Mild [2, 11]
4: Olfactory epithelial toxicity, number of animals with severity Slight [2, 10]
